# Measurements: ChEMBL document CHEMBL6178000, “Gut Microbial Metabolite 4-Ethylphenylsulfate Is Selectively Deleterious and Anticancer to Colon Cancer Cells” (J Med Chem, 2025)
# Activity calls are given as the source filed them. No cut-off for these calls is given here.
# How the values were obtained:
# HCT-116 [1] = test: Induction of apoptosis in human HCT-116 cells assessed as necrotic cells at 5 mM incubated for 48 hrs by Annexin V-FITC/PI staining based flow cytometric analysis (reference value: 0.16 %); type: functional
# HCT-116 [2] = test: Induction of ROS generation in human HCT-116 cells assessed as increase in superoxide anion at 1.25 to 10 mM incubated for 48 hrs by DHE fluorescence based analysis; type: functional, cell-based; conditions: dose 1.25-10 mM
# HCT-116 [3] = test: Induction of cell cycle arrest in human HCT-116 cells assessed as accumulation of cells at G2/M phase at 10 mM incubated for 48 hrs by PI staining based flow cytometric analysis (reference value: 14 %); type: functional
# HCT-116 [4] = test: Induction of apoptosis in human HCT-116 cells assessed as necrotic cells at 2.5 mM incubated for 48 hrs by Annexin V-FITC/PI staining based flow cytometric analysis (reference value: 0.16 %); type: functional
# HCT-116 [5] = test: Induction of apoptosis in human HCT-116 cells assessed as increase in apoptotic rate at 2.5 mM incubated for 48 hrs by Annexin V-FITC/PI staining based flow cytometric analysis relative to control; type: functional
# HCT-116 [6] = test: Induction of apoptosis in human HCT-116 cells assessed as viable cells at 5 mM incubated for 48 hrs by Annexin V-FITC/PI staining based flow cytometric analysis (reference value: 42.5 %); type: functional; conditions: HCT-116, 48 h, read-out: Activity
# HCT-116 [7] = test: Induction of cell cycle arrest in human HCT-116 cells assessed as accumulation of cells at G2/M phase at 1.25 mM incubated for 48 hrs by PI staining based flow cytometric analysis (reference value: 14 %); type: functional
# HCT-116 [8] = test: Induction of cell cycle arrest in human HCT-116 cells assessed as accumulation of cells at G2/M phase at 5 mM incubated for 48 hrs by PI staining based flow cytometric analysis (reference value: 14 %); type: functional
# HCT-116 [9] = test: Cytotoxicity against human HCT-116 cells assessed as reduction in ATP level incubated for 24 to 72 hrs by CellTiter-Glo assay; type: functional, cell-based; conditions: dose 0.25-10 mM, time 24-72 hrs
# HCT-116 [10] = test: Induction of morphological changes in human HCT-116 cells assessed as change in cell shape at 2.5 to 10 mM incubated for 24 to 72 hrs by inverted microscopic analysis; type: functional, cell-based; conditions: dose 2.5-10 mM, time 24-72 hrs
# HCT-116 [11] = test: Induction of apoptosis in human HCT-116 cells assessed as increase in Bax/Bcl2 ratio incubated for 48 hrs by Western blotting analysis; type: functional, cell-based; conditions: dose 2.5-5 mM
# HCT-116 [12] = test: Induction of apoptosis in human HCT-116 cells assessed as early apoptotic cells at 10 mM incubated for 48 hrs by Annexin V-FITC/PI staining based flow cytometric analysis (reference value: 55.2 %); type: functional
# HCT-116 [13] = test: Induction of morphological changes in human HCT-116 cells assessed as appearance of freely floating cells at 10 mM incubated for 24 to 72 hrs by inverted microscopic analysis; type: functional, cell-based; conditions: time 24-72 hrs
# HCT-116 [14] = test: Induction of apoptosis in human HCT-116 cells assessed as early apoptotic cells at 1.25 mM incubated for 48 hrs by Annexin V-FITC/PI staining based flow cytometric analysis (reference value: 55.2 %); type: functional
# HCT-116 [15] = test: Cytotoxicity against human HCT-116 cells assessed as reduction in cell viability at 10 mM incubated for 48 hrs by MTT assay (reference value: 100%); type: functional
# HCT-116 [16] = test: Induction of apoptosis in human HCT-116 cells assessed as viable cells at 2.5 mM incubated for 48 hrs by Annexin V-FITC/PI staining based flow cytometric analysis (reference value: 42.5 %); type: functional; conditions: HCT-116, 48 h, read-out: Activity
# HCT-116 [17] = test: Induction of cell cycle arrest in human HCT-116 cells assessed as accumulation of cells at G0/G1 phase at 2.5 mM incubated for 48 hrs by PI staining based flow cytometric analysis (reference value: 74.6 %); type: functional
# HCT-116 [18] = test: Induction of apoptosis in human HCT-116 cells assessed as necrotic cells at 10 mM incubated for 48 hrs by Annexin V-FITC/PI staining based flow cytometric analysis (reference value: 0.16 %); type: functional
# HCT-116 [19] = test: Induction of morphological changes in human HCT-116 cells assessed as rupture of plasma membrane at 2.5 to 10 mM incubated for 24 to 72 hrs by inverted microscopic analysis; type: functional, cell-based; conditions: dose 2.5-10 mM, time 24-72 hrs
# HCT-116 [20] = test: Cytotoxicity against human HCT-116 cells assessed as reduction in ATP level at 0.25 to 10 mM by CellTiter-Glo assay; type: functional, cell-based; conditions: dose 0.25-10 mM, time 24-72 hrs
# HCT-116 [21] = test: Induction of cell cycle arrest in human HCT-116 cells assessed as accumulation of cells at S phase at 2.5 mM incubated for 48 hrs by PI staining based flow cytometric analysis (reference value: 10 %); type: functional
# HCT-116 [22] = test: Induction of morphological changes in human HCT-116 cells assessed as blebbing of cells at 2.5 to 10 mM incubated for 24 to 72 hrs by inverted microscopic analysis; type: functional, cell-based; conditions: dose 2.5-10 mM, time 24-72 hrs
# HCT-116 [23] = test: Cytotoxicity against human HCT-116 cells assessed as reduction in cell viability at 10 mM incubated for 72 hrs by MTT assay (reference value: 100%); type: functional
# HCT-116 [24] = test: Cytotoxicity against human HCT-116 cells assessed as reduction in cell viability at 10 mM incubated for 24 hrs by MTT assay (reference value: 100%); type: functional
# HCT-116 [25] = test: Induction of cell cycle arrest in human HCT-116 cells assessed as accumulation of cells at G0/G1 phase at 5 mM incubated for 48 hrs by PI staining based flow cytometric analysis (reference value: 74.6 %); type: functional
# HCT-116 [26] = test: Induction of apoptosis in human HCT-116 cells assessed as late apoptotic cells at 1.25 mM incubated for 48 hrs by Annexin V-FITC/PI staining based flow cytometric analysis (reference value: 2.13 %); type: functional
# HCT-116 [27] = test: Induction of cell cycle arrest in human HCT-116 cells assessed as accumulation of cells at G0/G1 phase at 1.25 mM incubated for 48 hrs by PI staining based flow cytometric analysis (reference value: 74.6 %); type: functional
# HCT-116 [28] = test: Induction of apoptosis in human HCT-116 cells assessed as viable cells at 1.25 mM incubated for 48 hrs by Annexin V-FITC/PI staining based flow cytometric analysis (reference value: 42.5 %); type: functional; conditions: HCT-116, 48 h, read-out: Activity
# HCT-116 [29] = test: Induction of cell cycle arrest in human HCT-116 cells assessed as accumulation of cells at S phase at 5 mM incubated for 48 hrs by PI staining based flow cytometric analysis (reference value: 10 %); type: functional
# CCD-841CoN [30] = test: Cytotoxicity against human CCD-841CoN cells at 0.25 to 10 mM incubated for 24 to 48 hrs by MTT assay; type: toxicity, cell-based; conditions: 10000 µM, dose lower 0.25 mM, time lower 24 hrs, dose upper 10 mM, time upper 48 hrs
# HCT-116 [31] = test: Induction of apoptosis in human HCT-116 cells assessed as late apoptotic cells at 10 mM incubated for 48 hrs by Annexin V-FITC/PI staining based flow cytometric analysis (reference value: 2.13 %); type: functional
# HCT-116 [32] = test: Induction of apoptosis in human HCT-116 cells assessed as late apoptotic cells at 5 mM incubated for 48 hrs by Annexin V-FITC/PI staining based flow cytometric analysis (reference value: 2.13 %); type: functional
# HCT-116 [33] = test: Induction of apoptosis in human HCT-116 cells assessed as increase in apoptotic rate at 5 mM incubated for 48 hrs by Annexin V-FITC/PI staining based flow cytometric analysis relative to control; type: functional
# HCT-116 [34] = test: Induction of apoptosis in human HCT-116 cells assessed as increase in apoptotic rate at 10 mM incubated for 48 hrs by Annexin V-FITC/PI staining based flow cytometric analysis relative to control; type: functional
# HCT-116 [35] = test: Induction of cell cycle arrest in human HCT-116 cells assessed as accumulation of cells at S phase at 1.25 mM incubated for 48 hrs by PI staining based flow cytometric analysis (reference value: 10 %); type: functional
# HCT-116 [36] = test: Inhibition of colony formation in human HCT-116 cells at 0.25 to 10 mM incubated for 10 days by crystal violet staining based analysis; type: functional, cell-based; conditions: dose 0.25-10 mM, time 10.0 day
# HCT-116 [37] = test: Induction of morphological changes in human HCT-116 cells assessed as rounding of cells at 2.5 to 10 mM incubated for 24 to 72 hrs by inverted microscopic analysis; type: functional, cell-based; conditions: dose 2.5-10 mM, time 24-72 hrs
# HCT-116 [38] = test: Induction of morphological changes in human HCT-116 cells assessed as appearance of disorganized cell layers at 2.5 to 10 mM incubated for 24 to 72 hrs by inverted microscopic analysis; type: functional, cell-based; conditions: dose 2.5-10 mM, time 24-72 hrs
# HCT-116 [39] = test: Induction of cell cycle arrest in human HCT-116 cells assessed as accumulation of cells at G2/M phase at 2.5 mM incubated for 48 hrs by PI staining based flow cytometric analysis (reference value: 14 %); type: functional
# HCT-116 [40] = test: Induction of apoptosis in human HCT-116 cells assessed as increase in apoptotic rate at 1.25 mM incubated for 48 hrs by Annexin V-FITC/PI staining based flow cytometric analysis relative to control; type: functional
# HCT-116 [41] = test: Induction of cell cycle arrest in human HCT-116 cells assessed as accumulation of cells at S phase at 10 mM incubated for 48 hrs by PI staining based flow cytometric analysis (reference value: 10 %); type: functional
# HCT-116 [42] = test: Induction of apoptosis in human HCT-116 cells assessed as viable cells at 10 mM incubated for 48 hrs by Annexin V-FITC/PI staining based flow cytometric analysis (reference value: 42.5 %); type: functional; conditions: HCT-116, 48 h, read-out: Activity
# HCT-116 [43] = test: Induction of cell cycle arrest in human HCT-116 cells assessed as accumulation of cells at G0/G1 phase at 10 mM incubated for 48 hrs by PI staining based flow cytometric analysis (reference value: 74.6 %); type: functional
# HCT-116 [44] = test: Induction of apoptosis in human HCT-116 cells assessed as late apoptotic cells at 2.5 mM incubated for 48 hrs by Annexin V-FITC/PI staining based flow cytometric analysis (reference value: 2.13 %); type: functional
# HCT-116 [45] = test: Induction of morphological changes in human HCT-116 cells assessed as appearance of lobules at 2.5 to 10 mM incubated for 24 to 72 hrs by inverted microscopic analysis; type: functional, cell-based; conditions: dose 2.5-10 mM, time 24-72 hrs
# HCT-116 [46] = test: Induction of apoptosis in human HCT-116 cells assessed as early apoptotic cells at 2.5 mM incubated for 48 hrs by Annexin V-FITC/PI staining based flow cytometric analysis (reference value: 55.2 %); type: functional
# HCT-116 [47] = test: Induction of apoptosis in human HCT-116 cells assessed as early apoptotic cells at 5 mM incubated for 48 hrs by Annexin V-FITC/PI staining based flow cytometric analysis (reference value: 55.2 %); type: functional
# HCT-116 [48] = test: Induction of apoptosis in human HCT-116 cells assessed as necrotic cells at 1.25 mM incubated for 48 hrs by Annexin V-FITC/PI staining based flow cytometric analysis (reference value: 0.16 %); type: functional
# CCD-841CoN [49] = test: Cytotoxicity against human CCD-841CoN cells at 10 mM incubated for 72 hrs by MTT assay; type: toxicity, cell-based; conditions: 10000 µM
structure (smiles),measurement,setting,value
CCc1ccc(OS(=O)(=O)O)cc1,Activity,HCT-116 [1],0.076%
same,Activity,HCT-116 [2],Active
same,Activity,HCT-116 [3],27.2%
same,Activity,HCT-116 [4],0.065%
same,Activity,HCT-116 [5],73%
same,viability at 5000 µM,HCT-116 [6],8.22%
same,Activity,HCT-116 [7],19.7%
same,Activity,HCT-116 [8],29.8%
same,Activity,HCT-116 [9],Dose-dependent-effect
same,Activity,HCT-116 [10],Active
same,Activity,HCT-116 [11],Dose-dependent-effect
same,Activity,HCT-116 [12],48.3%
same,Activity,HCT-116 [13],Active
same,Activity,HCT-116 [14],68.6%
same,Activity,HCT-116 [15],24%
same,viability at 2500 µM,HCT-116 [16],22.5%
same,Activity,HCT-116 [17],64%
same,Activity,HCT-116 [18],0.067%
same,Activity,HCT-116 [19],Active
same,Activity,HCT-116 [20],Time-dependent-effect
same,Activity,HCT-116 [21],15.4%
same,Activity,HCT-116 [22],Active
same,Activity,HCT-116 [23],7%
same,Activity,HCT-116 [24],55%
same,Activity,HCT-116 [25],59.6%
same,Activity,HCT-116 [26],3.78%
same,Activity,HCT-116 [27],70.8%
same,viability at 1250 µM,HCT-116 [28],27.6%
same,Activity,HCT-116 [29],9.8%
same,Activity,CCD-841CoN [30],Non-toxic
same,Activity,HCT-116 [31],50.8%
same,Activity,HCT-116 [32],19.8%
same,Activity,HCT-116 [33],81%
same,Activity,HCT-116 [34],97%
same,Activity,HCT-116 [35],9%
same,inhibition,HCT-116 [36],Active
same,Activity,HCT-116 [37],Active
same,Activity,HCT-116 [38],Active
same,Activity,HCT-116 [39],19.7%
same,Activity,HCT-116 [40],52%
same,Activity,HCT-116 [41],13.5%
same,viability at 10000 µM,HCT-116 [42],0.84%
same,Activity,HCT-116 [43],55.4%
same,Activity,HCT-116 [44],7.36%
same,Activity,HCT-116 [45],Active
same,Activity,HCT-116 [46],70.1%
same,Activity,HCT-116 [47],71.9%
same,Activity,HCT-116 [48],0.048%
same,Activity,CCD-841CoN [49],Non-toxic
